Reference: US20080200454A1, “CARBON-LINKED TETRAHYDRO-PYRAZOLO-PYRIDINE MODULATORS OF CATHEPSIN S” (priority 2007, published 2008)
pIC50: −log10 of the molar value. Where two headings read alike, the source gives them in different places.

Biological target: Recombinant human cathepsin S (CatS) (Homo sapiens, UniProt P25774)
Assay: Recombinant human cathepsin S (CatS) inhibition assay, fluorogenic substrate Z-Valine-Valine-Arginine-AMC;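 note: Baculovirus-expressed CatS in pH 5.0 sodium acetate buffer with DTT and NaCl, fluorescence read each minute over 20 min, inhibition derived from rate slope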

Sequence of Recombinant human cathepsin S (CatS) (P25774 115-331): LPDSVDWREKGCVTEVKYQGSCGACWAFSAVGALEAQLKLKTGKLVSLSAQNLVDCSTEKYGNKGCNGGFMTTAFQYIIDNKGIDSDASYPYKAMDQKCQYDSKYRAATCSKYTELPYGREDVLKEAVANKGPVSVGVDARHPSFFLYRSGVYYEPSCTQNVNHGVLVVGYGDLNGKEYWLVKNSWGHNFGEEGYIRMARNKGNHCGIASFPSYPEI

Compound	pIC50	pIC50 (CatS IC50)
CS(=O)(=O)N1CCc2c(c(-c3ccc(Cl)c(C#Cc4ccc(CN5CCCC5)cc4)c3)nn2CCCN2CCOCC2)C1 [Example 78, 3-[4-Chloro-3-(4-pyrrolidin-1-ylmethyl-phenylethynyl)-phenyl]-5-methanesulfonyl-1-(3-morpholin-4-yl-propyl)-4,5,6,7-tetrahydro-1H-pyrazolo[4,3-c]pyridine]	–	5.85
CS(=O)(=O)N1CCc2c(c(-c3ccc(Cl)c(C#Cc4ccc(CN5CCCCC5)cc4)c3)nn2CCCN2CCOCC2)C1 [Example 79, 3-[4-Chloro-3-(4-piperidin-1-ylmethyl-phenylethynyl)-phenyl]-5-methanesulfonyl-1-(3-morpholin-4-yl-propyl)-4,5,6,7-tetrahydro-1H-pyrazolo[4,3-c]pyridine]	–	5.82
CS(=O)(=O)NCCCc1cc(-c2nn(CCCN3CCOCC3)c3c2CN(S(C)(=O)=O)CC3)ccc1Cl [Example 80, N-(3-{2-Chloro-5-[5-methanesulfonyl-1-(3-morpholin-4-yl-propyl)-4,5,6,7-tetrahydro-1H-pyrazolo[4,3-c]pyridin-3-yl]-phenyl}-propyl)-methanesulfonamide]	5.00	–
Cc1ccc(S(=O)(=O)NCCCc2cc(-c3nn(CCCN4CCOCC4)c4c3CN(S(C)(=O)=O)CC4)ccc2Cl)cc1 [Example 84, N-(3-{2-Chloro-5-[5-methanesulfonyl-1-(3-morpholin-4-yl-propyl)-4,5,6,7-tetrahydro-1H-pyrazolo[4,3-c]pyridin-3-yl]-phenyl}-propyl)-4-methyl-benzenesulfonamide]	5.09	–
COc1ccc(S(=O)(=O)NCCCc2cc(-c3nn(CCCN4CCOCC4)c4c3CN(S(C)(=O)=O)CC4)ccc2Cl)cc1 [Example 85, N-(3-{2-Chloro-5-[5-methanesulfonyl-1-(3-morpholin-4-yl-propyl)-4,5,6,7-tetrahydro-1H-pyrazolo[4,3-c]pyridin-3-yl]-phenyl}-propyl)-4-methoxy-benzenesulfonamide]	5.05	–
CN(C)S(=O)(=O)NCCCc1cc(-c2nn(CCCN3CCOCC3)c3c2CN(S(C)(=O)=O)CC3)ccc1Cl [Example 86]	4.89	–

More lines, in order of rising pIC50, values ahead:

pIC50	Compound	pIC50 (CatS IC50)
5.15	CS(=O)(=O)N1CCc2c(c(-c3ccc(Cl)c(CCCNS(=O)(=O)c4ccc(Cl)cc4)c3)nn2CCCN2CCOCC2)C1 [Example 83, 4-Chloro-N-(3-{2-chloro-5-[5-methanesulfonyl-1-(3-morpholin-4-yl-propyl)-4,5,6,7-tetrahydro-1H-pyrazolo[4,3-c]pyridin-3-yl]-phenyl}-propyl)-benzenesulfonamide]	–
5.21	CS(=O)(=O)N1CCc2c(c(-c3ccc(Cl)c(CCCNS(=O)(=O)c4ccc(Cl)c(Cl)c4)c3)nn2CCCN2CCOCC2)C1 [Example 82, 3,4-Dichloro-N-(3-{2-chloro-5-[5-methanesulfonyl-1-(3-morpholin-4-yl-propyl)-4,5,6,7-tetrahydro-1H-pyrazolo[4,3-c]pyridin-3-yl]-phenyl}-propyl)-benzenesulfonamide]	–
5.26	CS(=O)(=O)N1CCc2c(c(-c3ccc(Cl)c(CCCNS(=O)(=O)Cc4ccccc4)c3)nn2CCCN2CCOCC2)C1 [Example 81, N-(3-{2-Chloro-5-[5-methanesulfonyl-1-(3-morpholin-4-yl-propyl)-4,5,6,7-tetrahydro-1H-pyrazolo[4,3-c]pyridin-3-yl]-phenyl}-propyl)-C-phenyl-methanesulfonamide]	–
6.19	CN(Cc1ccccc1)Cc1ccc(C#Cc2cc(-c3nn(CCCN4CCOCC4)c4c3CN(S(C)(=O)=O)CC4)ccc2Cl)cc1 [Example 77, Benzyl-(4-{2-chloro-5-[5-methanesulfonyl-1-(3-morpholin-4-yl-propyl)-4,5,6,7-tetrahydro-1H-pyrazolo[4,3-c]pyridin-3-yl]-phenylethynyl}-benzyl)-methyl-amine]	–
6.62	CS(=O)(=O)N1CCc2c(c(-c3ccc(Cl)c(C#Cc4ccc(CNCc5ccc(Cl)cc5)cc4)c3)nn2CCCN2CCOCC2)C1 [Example 76, (4-Chloro-benzyl)-(4-{2-chloro-5-[5-methanesulfonyl-1-(3-morpholin-4-yl-propyl)-4,5,6,7-tetrahydro-1H-pyrazolo[4,3-c]pyridin-3-yl]-phenylethynyl}-benzyl)-amine]	–
